# Patent publication US20090275499A1, “NONSTRUCTURAL PROTEIN NS1 AS A NOVEL THERAPEUTIC TARGET AGAINST FLAVIVIRUSES” (priority 2008, published 2009)
# “Also recorded” adds a separate entry of the source.
# What was measured:
# DENV sNS1 secretion [1] = system: DENV sNS1 secretion
# Protocol: Vero cells were infected with DENV-1 at an MOI of 1 for 2 h at 37° C. An uninfected control was included. At seven hours post infection, cells were either mock-treated or treated with D-threo-1-phenyl-2-palmitoylamino-3-pyrrolidino-1-propanol (P4; Calbiochem, San Diego, Calif.) at 2 or 5 μM, combined or not with 1 mM DMJ (Calbiochem, San Diego, Calif.). At 24 hours post infection, cells were washed and incubated for 1 h in methionine/cysteine-free DMEM before metabolically labeling proteins for 4 h in methionine/cysteine-free DMEM supplemented with a mix of ^35S-labeled methionine/cysteine. The NS1 protein was then immunoprecipitated from cell lysates prepared in 25 mM Tris-HCl pH 7.6, 150 mM NaCl, 1% NP-40, 1% sodium deoxycholate, 0.1% SDS, or from the supernatant, with anti-NS1 MAb 13A1 (kindly provided by Dr. Robert Putnak). Immunoprecipitated proteins were separated by SDS-PAGE and detected on an X-ray film.
# DENV sNS1 secretion [2] = details: DENV-infected Vero cells; Flamand et al., 1999; cited from earlier work
# Vero cells = details: 5 μM P4, Vero cells
# [3] = system: TNF-α-mediated induction of E-selectin expression; experiment: TNF-α-mediated induction of E-selectin expression in HUVEC (cell-based ELISA); parameters: species or system human; details: TNF-α 10 ng/ml pre-incubated with PMB
# DENV sNS1 protein = experiment: Inhibition of DENV sNS1-mediated endothelial cell activation (E-selectin cell-based ELISA in HUVEC); parameters: species or system Dengue virus (DENV-1)
# Protocol: Activation of endothelial cells by the DENV sNS1 protein has been monitored by the production of adhesion molecule E-selectine, as previously described (Kayal et al., 1999). Briefly, HUVEC cell monolayers were incubated with various concentrations of the purified sNS1 protein for different periods of time. Cells were washed once with warm M199 medium supplemented with 20% FCS and twice with serum-free M199 before fixation for 10 min in ice-cold PBS containing 4% paraformaldehyde. Cells were then rinsed with PBS and treated with a 10% bovine serum albumin (BSA) solution in PBS to reduce non-specific binding of antibodies. Plates were then sequentially incubated for 2 h at room temperature (RT) with primary anti-E-selectin monoclonal antibody (BBA2, R&D Systems, Minneapolis, Minn.) at a dilution of 1:2000 in PBS containing 5% BSA (PBS/BSA), and a secondary peroxidase-conjugated rabbit anti-mouse IgG (Sigma, St. Louis, Mo.) at a dilution of 1:4000 in PBS/BSA. After extensive washes in PBS/BSA and PBS alone, bound antibodies were detected using the TMB Microwell peroxidase substrate system (KPL). The reaction was stopped after 3-5 min by addition of 2.5 N sulfuric acid and the absorbance values were read at a wavelength of 450 nm. […]
compound,measurement,setting,value
"OC[C@H]1NC[C@@H](O)[C@@H](O)[C@@H]1O [DMJ, deoxymannojirymicin]","sNS1 secretion, combination of P4 and DMJ","DENV sNS1 secretion [1]; P4 2 or 5 μM + DMJ 1 mM, DENV-infected Vero (kidney) cells",additional effect on P4 inhibition
same,"sNS1 secretion, DMJ alone",DENV sNS1 secretion [2],impairs sNS1 secretion
"CCCCCCCCCCCCCCCC(=O)N[C@H](CN1CCCC1)[C@H](O)c1ccccc1 [P4, D-threo-1-phenyl-2-palmitoylamino-3-pyrrolidino-1-propanol]",secretion of sNS1,"DENV sNS1 secretion [1]; P4 alone, DENV-infected Vero cells, MOI 1, effect stated at 5 μM P4",significantly reduced; also recorded: interferes with sNS1 secretion
same,cell viability,Vero cells,without compromising cell viability
polymyxin B [PMB],TNF-α-mediated induction of E-selectin expression,[3],did not show any effect
same,expression of E-selectin in response to the sNS1 protein,"DENV sNS1 protein; HUVEC pulse treated with sNS1 (10 μg/ml) pre-incubated with PMB 2 and 10 μg/ml, 15 min-6 h, fixed at 6 h",repressive effect
same,sNS1-induced HUVEC (endothelial cell) activation,DENV sNS1 protein; no detectable LPS in purified sNS1 preparations,very efficiently block endothelial cell activation by sNS1; also recorded: abrogated the ability of DENV sNS1 to activate HUVEC; also recorded: blocks sNS1-induced HUVEC activation
